# According to patent US9815802B2, “Herbicidally active N-(1-methyltetrazol-5-yl)benzoic acid amides” (BAYER CROPSCIENCE AKTIENGESELLSCHAFT, priority 2014, dated 2017):
# Experiments:
# Type in all cases: in vivo
# Stellaria media [1] = test: Pre-emergence herbicidal action against STEME
# Source text: (§1) Pre-Emergence Herbicidal Action Against Harmful Plants
# (§2) Seeds of monocotyledonous and dicotyledonous weed plants and crop plants are laid out in wood-fiber pots in sandy loam and covered with soil. The compounds of the invention, formulated in the form of wettable powders (WP) or as emulsion concentrates (EC), are then applied to the surface of the covering soil in the form of an aqueous suspension or emulsion at a water application rate equating to 600 to 800 I/ha, with addition of 0.2% wetting agent. After the treatment, the pots are placed in a greenhouse and kept under good growth conditions for the trial plants. The damage to the test plants is scored visually after a test period of 3 weeks by comparison with untreated controls (herbicidal activity in percent (%): 100% activity=the plants have died, 0% activity=like control plants). For example, compounds no. 1-001, 1-002, 1-003, 1-004, 1-011, 1-012, 1-021, 1-022, 1-031, 1-032, 1-041, 1-042 and 1-044 at an application rate of 320 g/ha each have at least 80% efficacy against Echinocloa crusgalli, Abutilon theophrasti, Amaranthus retroflexus and Matricaria inodora.
# Setaria viridis [2] = test: Pre-emergence herbicidal action against SETVI
# Source text: as §1, §2
# Alopecurus myosuroides = test: Post-emergence herbicidal action against ALOMY
# Protocol: (§3) Post-Emergence Herbicidal Action Against Harmful Plants Seeds of monocotyledonous and dicotyledonous weed and crop plants are laid out in sandy loam in wood-fiber pots, covered with soil and cultivated in a greenhouse under good growth conditions. 2 to 3 weeks after sowing, the test plants are treated at the one-leaf stage. The compounds of the invention, formulated in the form of wettable powders (WP) or as emulsion concentrates (EC), are then sprayed onto the green parts of the plants in the form of an aqueous suspension or emulsion at a water application rate equating to 600 to 800 I/ha, with addition of 0.2% wetting agent. After the test plants have been left to stand in the greenhouse under optimal growth conditions for about 3 weeks, the action of the preparations is assessed visually in comparison to untreated controls (herbicidal action in percent (%): 100% activity=the plants have died, 0% activity=like control plants).
# Avena fatua [3] = test: Post-emergence herbicidal action against AVEFA
# Protocol: as §3
# Stellaria media [4] = test: Post-emergence herbicidal action against STEME; details: dosage 5 g/ha
# Protocol: as §3
# Setaria viridis [5] = test: Post-emergence herbicidal action against SETVI; details: dosage 5 g/ha
# Protocol: as §3
# Polygonum convolvulus [6] = test: Post-emergence herbicidal action against POLCO
# Protocol: as §3
# Pharbitis purpureum = test: Pre-emergence herbicidal action against PHBPU; details: dosage 320 g/ha
# Source text: as §1, §2
# Avena fatua [7] = test: Pre-emergence herbicidal action against AVEFA; details: dosage 320 g/ha
# Source text: as §1, §2
# Polygonum convolvulus [8] = test: Pre-emergence herbicidal action against POLCO; details: dosage 320 g/ha
# Source text: as §1, §2
smiles,measurement,setting,value
COSc1c(C)ccc(C(=O)Nc2nnnn2C)c1I,Activity against STEME,Stellaria media [1]; dosage 320 g/ha,70%
same,Activity against SETVI,Setaria viridis [2]; dosage 320 g/ha,30%
COSc1c(C)ccc(C(=O)Nc2nnnn2C)c1OC,Activity against STEME,Stellaria media [1]; dosage 320 g/ha,60%
same,Activity against SETVI,Setaria viridis [2]; dosage 320 g/ha,40%
COSc1c(C=O)ccc(C(=O)Nc2nnnn2C)c1C,Activity against STEME,Stellaria media [1]; dosage 320 g/ha,0%
same,Activity against SETVI,Setaria viridis [2]; dosage 320 g/ha,0%
CCOSc1c(C)ccc(C(=O)Nc2nnnn2C)c1C,Activity against ALOMY,Alopecurus myosuroides; dosage 80 g/ha,90%
same,Activity against AVEFA,Avena fatua [3]; dosage 80 g/ha,100%
CCc1ccc(C(=O)Nc2nnnn2C)c(C)c1SOC,Activity against STEME,Stellaria media [4],100%
same,Activity against SETVI,Setaria viridis [5],100%
COSc1c(C(C)C)ccc(C(=O)Nc2nnnn2C)c1C,Activity against ALOMY,Alopecurus myosuroides; dosage 5 g/ha,60%
same,Activity against AVEFA,Avena fatua [3]; dosage 5 g/ha,40%
Cc1c(C(=O)Nc2nnnn2C)ccc(C(C)C)c1S(C)(=O)=O,Activity against ALOMY,"Alopecurus myosuroides; Table S, dosage 5 g/ha",60%
same,Activity against AVEFA,"Avena fatua [3]; Table S, dosage 5 g/ha",30%
Cc1c(C(=O)Nc2nnnn2C)ccc(I)c1S(C)(=O)=O,Activity against ALOMY,"Alopecurus myosuroides; Table S, dosage 5 g/ha",20%
same,Activity against AVEFA,"Avena fatua [3]; Table S, dosage 5 g/ha",0%
Cc1c(C(=O)Nc2nnnn2C)ccc(C(F)(F)F)c1S(C)(=O)=O,Activity against ALOMY,"Alopecurus myosuroides; Table S, dosage 5 g/ha",30%
same,Activity against AVEFA,"Avena fatua [3]; Table S, dosage 5 g/ha",0%
CCc1c(C(=O)Nc2nnnn2C)ccc(Cl)c1SOC,Activity against POLCO,"Polygonum convolvulus [6]; Table V, dosage 5 g/ha",20%
CCc1c(C(=O)Nc2nnnn2C)ccc(Br)c1S(C)(=O)=O,Activity against POLCO,"Polygonum convolvulus [6]; Table W, dosage 20 g/ha",40%
CCOSc1c(C(F)(F)F)ccc(C(=O)Nc2nnnn2C)c1CC,Activity against POLCO,"Polygonum convolvulus [6]; Table X, dosage 20 g/ha",20%
CCc1ccc(C(=O)Nc2nnnn2C)c(CC)c1S(=O)(=O)CC,Activity against POLCO,"Polygonum convolvulus [6]; Table Y, dosage 20 g/ha",100%
CCc1c(C(=O)Nc2nnnn2C)ccc(C(F)(F)F)c1S(=O)(=O)CC,Activity against POLCO,"Polygonum convolvulus [6]; Table Y, dosage 20 g/ha",80%
"Cc1ccc(C(=O)Nc2nnnn2C)c(C)c1[S+](C)[O-] (centres unmarked) [1-001, 2,4-Dimethyl-3-(methylsulfinyl)-N-(1-methyl-1H-tetrazol-5-yl)benzamide]",Activity against STEME,Stellaria media [1]; dosage 320 g/ha,90%
same,Activity against SETVI,Setaria viridis [2]; dosage 320 g/ha,100%
CCS(=O)(=O)c1c(C)ccc(C(=O)Nc2nnnn2C)c1C [1-004],Activity against PHBPU,Pharbitis purpureum,80%
same,Activity against AVEFA,Avena fatua [7],90%
CCc1ccc(C(=O)Nc2nnnn2C)c(C)c1S(C)(=O)=O [1-012],Activity against STEME,Stellaria media [1]; dosage 80 g/ha,90%
same,Activity against SETVI,Setaria viridis [2]; dosage 80 g/ha,100%
CCc1c(C(=O)Nc2nnnn2C)ccc(C)c1S(C)(=O)=O [1-032],Activity against PHBPU,Pharbitis purpureum,80%
same,Activity against AVEFA,Avena fatua [7],80%
CCc1ccc(C(=O)Nc2nnnn2C)c(CC)c1[S+](C)[O-] (centres unmarked) [1-041],Activity against PHBPU,Pharbitis purpureum,80%
same,Activity against POLCO,Polygonum convolvulus [8],80%
CCc1ccc(C(=O)Nc2nnnn2C)c(CC)c1S(C)(=O)=O [1-042],Activity against PHBPU,Pharbitis purpureum,100%
same,Activity against POLCO,Polygonum convolvulus [8],100%
Cc1c(C(=O)Nc2nnnn2C)cccc1S(C)(=O)=O [4-080],Activity against STEME,Stellaria media [1]; dosage 80 g/ha,50%
same,Activity against SETVI,Setaria viridis [2]; dosage 80 g/ha,20%
"CCc1c(C(=O)Nc2nnnn2C)ccc(Cl)c1S(C)(=O)=O [4-192, reference compound]",Activity against PHBPU,Pharbitis purpureum,80%
same,Activity against POLCO,Polygonum convolvulus [8],60%
COc1ccc(C(=O)Nc2nnnn2C)c(C)c1S(C)(=O)=O [4-439],Activity against PHBPU,Pharbitis purpureum,60%
same,Activity against STEME,Stellaria media [1]; dosage 80 g/ha,70%
same,Activity against AVEFA,Avena fatua [7],50%
same,Activity against SETVI,Setaria viridis [2]; dosage 80 g/ha,0%
"CCc1c(C(=O)Nc2nnnn2C)ccc(Br)c1SOC [4-503, reference compound]",Activity against PHBPU,Pharbitis purpureum,50%
same,Activity against POLCO,Polygonum convolvulus [8],60%
Cc1ccc(C(=O)Nc2nnnn2C)c(I)c1S(C)(=O)=O [4-791],Activity against PHBPU,Pharbitis purpureum,30%
same,Activity against AVEFA,Avena fatua [7],0%
CCS(=O)(=O)c1c(C)ccc(C(=O)Nc2nnnn2C)c1I [4-794],Activity against PHBPU,Pharbitis purpureum,60%
same,Activity against AVEFA,Avena fatua [7],10%
COSc1c(C)ccc(C(=O)Nc2nnnn2C)c1[N+](=O)[O-] [4-796],Activity against STEME,Stellaria media [1]; dosage 320 g/ha,50%
same,Activity against SETVI,Setaria viridis [2]; dosage 320 g/ha,0%
Cc1ccc(C(=O)Nc2nnnn2C)c([N+](=O)[O-])c1S(C)(=O)=O [4-797],Activity against PHBPU,Pharbitis purpureum,0%
same,Activity against AVEFA,Avena fatua [7],0%
